Assay results: patent US11813274B2, “Treating untreated or treatment-resistant diabetes with glucokinase activator and sodium-glucose cotransporter-2 inhibitor” (HUA Medicine (Shanghai) Ltd., priority 2020, dated 2023)

What was measured:
[1] = test system: subjects with Type-2 Diabetes Mellitus (T2DM); test: Oral glucose tolerance test (OGTT): serum glucose pharmacodynamic response; assay type: in vivo, human; details: baseline corrected, after 75-gram OGTT 30 min post-dose, Days 5, 10, 15
Description: (§1) On Days 5, 10 and 15, a 75-gram glucose solution (oral glucose tolerance test, OGTT) was administered 30 min post-drug administration. No breakfast was provided.
(§2) Pharmacodynamic (PD) responses, i.e., serum levels of glucose, insulin and C-peptide and plasma levels of glucagon, were evaluated on Days 5, 10 and 15: pre-dose (within 60 min prior to glucose intake) and at 0.5, 1, 1.5, 2, 2.5, 3 and 4 h post-glucose intake. Urine was collected for urinary glucose excretion on Days 5, 10 and 15: pre-dose (for bladder emptying only, no pre-dose glucose measurement), and over a series of intervals (0-2 h, 2-4 h, 4-6 h, 6-8 h, 8-12 h and 12-24 h post-dose).

[2] = in vivo
Description: This phase I study accessed the pharmacokinetic interaction between dorzagliatin and empagliflozin in T2DM subjects.
Sixteen eligible subjects were enrolled and 15 of them completed the study.
All subjects received: (i) empagliflozin (25 mg, QD) on Days 1-5; and empagliflozin was taken 60 min prior to meals (except on Day 5, when it was administered 30 min before glucose intake); (ii) empagliflozin (25 mg, QD) and dorzagliatin (75 mg, BID) on Days 6-10 (only the morning dose on Day 10); and empagliflozin and dorzagliatin were taken 60 min prior to meals (except on Day 10, when they were administered 30 min before glucose intake); or (iii) dorzagliatin 75 mg BID on Days 11-15 (only the morning dose on Day 15); and dorzagliatin was taken 60 min prior to meals (except on Day 15, when it was administered 30 min before glucose intake).
Blood samples for the determination of dorzagliatin and empagliflozin concentrations and corresponding pharmacokinetic (PK) analysis were collected at the following time points on Days 5, 10 and 15: pre-dose (within 30 min prior to drug dosing) and at 0.25, 0.5, 1, 1.5, 2, 3, 4, 6, 8, 10, 12, 18 and 24 h post-dose. […]
The plasma concentration-time data for dorzagliatin and empagliflozin were analyzed using non-compartmental methods to calculate PK parameters.

[3] = test system: subjects with Type-2 Diabetes Mellitus (T2DM); test: Oral glucose tolerance test (OGTT): serum C-peptide pharmacodynamic response; assay type: in vivo, human; details: baseline corrected, after 75-gram OGTT, Days 5, 10, 15
Description: as §1, §2

## OC[C@H]1O[C@@H](c2ccc(Cl)c(Cc3ccc(OC4CCOC4)cc3)c2)[C@H](O)[C@@H](O)[C@@H]1O (stereo in doubt) [Empagliflozin, (2S,3R,4R,5S,6R)-2-[4-chloro-3({4-[(3S)-oxolan-3-yloxy]phenyl}methyl)phenyl]-6-(hydroxymethyl)oxane-3,4,5-triol]
[1]
  Glucose response AUEC0-4 h, mean: 452 mg·h/dL
  Glucose response CEav, mean: 113 mg/dL
  Glucose response CEmax, mean: 199 mg/dL
[2]
  effect of empagliflozin on dorzagliatin PK parameters (drug-drug interaction): did not have a significant effect on dorzagliatin PK parameters
[3]
  C-peptide response AUEC0-4 h, mean: 11 ng·h/mL
  C-peptide response CEav, mean: 2.7 ng/mL
  C-peptide response CEmax, mean: 4.7 ng/mL

## CC(C)C[C@@H](C(=O)Nc1ccn(C[C@@H](O)CO)n1)N1CC(Oc2ccccc2Cl)=CC1=O [Dorzagliatin, (S)-2-(4-(2-chlorophenoxy)-2-oxo-2,5-dihydro-1H-pyrrol-1-yl)-N-(1-((R)-2,3-dihydroxypropyl)-1H-pyrazol-3-yl)-4-methylpentanamide]
[1]
  Glucose response AUEC0-4 h, mean: 364 mg·h/dL
  Glucose response CEav, mean: 91 mg/dL
  Glucose response CEmax, mean: 163 mg/dL
[2]
  effect of dorzagliatin on empagliflozin PK parameters (drug-drug interaction): did not have a significant effect on empagliflozin PK parameters
[3]
  C-peptide response AUEC0-4 h, mean: 13 ng·h/mL
  C-peptide response CEav, mean: 3.2 ng/mL
  C-peptide response CEmax, mean: 5.5 ng/mL
